Where a name gives a salt, the structure may show the parent alone. Read-outs that look alike come from different tables or passages of the source.
Assays:
α-1 Adrenoceptors = assay: Functional antagonism in rat aorta (method not described); type: cell-based
α-1B adrenoreceptor [1] = biological target: T1, α-1B adrenoreceptor (Rattus norvegicus, UniProt P15823); assay: cell-based; settings: phenylephrine-induced contraction; Schild plot
T1 construct: from tissue; host or cells: rat spleen
T1 sequence (P15823 1-515): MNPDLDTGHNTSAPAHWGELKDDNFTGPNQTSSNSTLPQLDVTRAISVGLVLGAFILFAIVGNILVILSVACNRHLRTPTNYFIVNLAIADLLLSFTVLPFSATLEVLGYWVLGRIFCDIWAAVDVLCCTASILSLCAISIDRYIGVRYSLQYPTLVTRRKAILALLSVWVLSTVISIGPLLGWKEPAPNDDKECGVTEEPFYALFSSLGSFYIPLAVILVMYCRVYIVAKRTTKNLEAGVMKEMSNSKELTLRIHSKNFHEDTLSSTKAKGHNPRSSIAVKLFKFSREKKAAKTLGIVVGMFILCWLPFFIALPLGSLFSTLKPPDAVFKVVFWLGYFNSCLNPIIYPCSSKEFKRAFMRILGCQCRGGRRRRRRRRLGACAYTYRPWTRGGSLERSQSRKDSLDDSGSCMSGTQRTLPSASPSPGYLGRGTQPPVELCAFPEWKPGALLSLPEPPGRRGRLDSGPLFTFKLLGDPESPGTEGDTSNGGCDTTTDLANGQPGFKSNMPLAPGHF
From the text: (§1) Functional assays indicative of pharmacologically defined α-1 adrenoreceptors were used to further characterize compounds. Inhibition of phenylephrine (PE)-induced contraction of canine prostate smooth muscle can be correlated with α-1A adrenoreceptor activation. […] For each of these models, agonist dose response curves were repeated against increasing concentrations of test agent to derive a Schild plot [log ([…]) against log (molarity of test agent)] to determine the pA2.

α-1a adrenoreceptor [2] = biological target: T2, α-1a adrenoreceptor (Bos taurus, UniProt P18130); assay: biochemical; type: binding, bovine; settings: read-out: Radioligand Binding (Ki, nM) 1a (Bovine)
T2 sequence (P18130 1-466): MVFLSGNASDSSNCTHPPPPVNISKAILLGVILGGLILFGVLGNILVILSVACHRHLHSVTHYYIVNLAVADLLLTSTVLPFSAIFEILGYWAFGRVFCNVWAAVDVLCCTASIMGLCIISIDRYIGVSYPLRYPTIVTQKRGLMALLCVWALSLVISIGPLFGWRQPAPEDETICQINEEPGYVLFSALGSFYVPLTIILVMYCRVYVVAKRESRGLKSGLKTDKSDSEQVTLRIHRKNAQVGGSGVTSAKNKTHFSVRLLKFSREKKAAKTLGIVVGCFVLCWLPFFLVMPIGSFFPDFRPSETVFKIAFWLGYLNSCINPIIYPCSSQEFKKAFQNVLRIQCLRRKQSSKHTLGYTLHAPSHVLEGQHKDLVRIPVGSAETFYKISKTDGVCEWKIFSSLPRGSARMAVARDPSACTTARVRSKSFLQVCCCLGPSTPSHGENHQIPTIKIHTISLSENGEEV
Method in brief: (§2)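 Membranes from LTK mouse fibroblast clones stably transfected with α-1a, α-1b or α-1d cDNA, resuspended in 50 mM Tris-HCl pH 7.4, served for radioligand displacement read by liquid scintillation. Rat submaxillary gland tissue supplied the α-1A receptor.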

α-1d adrenoreceptor = biological target: T3, α-1d adrenoreceptor (Rattus norvegicus, UniProt P23944); assay: biochemical; type: binding; settings: read-out: Radioligand Binding (Ki, nM) 1d (Rat)
T3 sequence (P23944 1-561): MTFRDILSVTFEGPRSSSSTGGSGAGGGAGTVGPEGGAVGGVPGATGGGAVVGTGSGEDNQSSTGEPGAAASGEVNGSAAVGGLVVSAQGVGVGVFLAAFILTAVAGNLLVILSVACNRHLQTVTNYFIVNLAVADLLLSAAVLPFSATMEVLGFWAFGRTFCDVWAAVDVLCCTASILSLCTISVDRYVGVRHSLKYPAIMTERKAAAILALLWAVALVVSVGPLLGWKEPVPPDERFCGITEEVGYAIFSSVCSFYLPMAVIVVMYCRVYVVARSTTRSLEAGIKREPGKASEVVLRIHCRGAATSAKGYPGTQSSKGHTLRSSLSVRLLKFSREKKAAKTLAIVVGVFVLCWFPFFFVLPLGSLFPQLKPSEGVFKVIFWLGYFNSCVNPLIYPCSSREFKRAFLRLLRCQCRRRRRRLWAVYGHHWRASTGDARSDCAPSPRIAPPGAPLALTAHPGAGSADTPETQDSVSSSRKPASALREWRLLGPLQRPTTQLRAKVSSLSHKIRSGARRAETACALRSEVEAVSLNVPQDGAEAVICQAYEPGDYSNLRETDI
Method in brief: as §2

α-1A adrenoreceptor [3] = assay: Functional antagonism: inhibition of PE-induced contraction of canine prostate strips (Schild plot); type: cell-based; settings: phenylephrine-induced contraction
From the text: Canine prostate strips were used in vitro as previously described (Hieble, J.P., Boyce, A.J. and Caine, M., Fed. Proc., 45: 2609-2614 (1986)), to determine antagonist potencies against phenylephrine-induced contractions.
as §1

[4] = biological target: T4, α-1A adrenoreceptor (rat submaxillary gland) (Rattus norvegicus, UniProt P43140); assay: biochemical; type: binding; settings: read-out: Radioligand Binding (Ki, nM) 1A (Rat)
T4 sequence (P43140 1-466): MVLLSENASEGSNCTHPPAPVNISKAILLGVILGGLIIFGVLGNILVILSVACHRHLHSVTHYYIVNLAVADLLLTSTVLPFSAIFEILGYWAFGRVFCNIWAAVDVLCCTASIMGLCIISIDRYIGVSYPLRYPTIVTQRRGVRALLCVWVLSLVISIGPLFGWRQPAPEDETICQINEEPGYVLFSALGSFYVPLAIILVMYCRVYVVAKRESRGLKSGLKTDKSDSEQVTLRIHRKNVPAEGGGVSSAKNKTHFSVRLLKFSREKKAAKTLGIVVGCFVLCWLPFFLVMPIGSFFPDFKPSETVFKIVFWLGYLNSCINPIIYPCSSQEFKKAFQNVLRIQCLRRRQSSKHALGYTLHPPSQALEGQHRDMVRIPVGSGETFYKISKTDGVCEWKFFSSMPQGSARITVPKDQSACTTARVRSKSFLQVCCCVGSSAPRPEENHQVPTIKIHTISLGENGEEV
Method in brief: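 Membranes were prepared from rat submaxillary glands as the α-1A adrenoreceptor source. Competition binding followed Greengrass and Bremner, with bound radioligand measured by scintillation counting.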

α-1b adrenoreceptor [5] = biological target: T5, α-1b adrenoreceptor (Mesocricetus auratus, UniProt P18841); assay: biochemical; type: binding, hamster; settings: read-out: Radioligand Binding (Ki, nM) 1b (Hamster)
T5 sequence (P18841 1-515): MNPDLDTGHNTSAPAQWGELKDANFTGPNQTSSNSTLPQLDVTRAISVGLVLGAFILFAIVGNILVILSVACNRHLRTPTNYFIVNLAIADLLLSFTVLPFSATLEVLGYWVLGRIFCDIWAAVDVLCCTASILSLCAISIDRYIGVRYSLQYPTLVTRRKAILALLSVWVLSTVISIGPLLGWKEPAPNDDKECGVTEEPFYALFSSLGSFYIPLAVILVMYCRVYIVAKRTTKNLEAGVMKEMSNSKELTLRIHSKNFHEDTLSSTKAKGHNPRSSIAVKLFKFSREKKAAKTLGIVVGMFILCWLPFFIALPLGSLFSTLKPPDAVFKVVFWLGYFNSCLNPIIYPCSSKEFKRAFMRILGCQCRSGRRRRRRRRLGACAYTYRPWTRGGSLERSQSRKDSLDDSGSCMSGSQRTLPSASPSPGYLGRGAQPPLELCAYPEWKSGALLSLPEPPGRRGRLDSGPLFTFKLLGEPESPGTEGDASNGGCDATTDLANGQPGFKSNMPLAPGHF
Method in brief: as §2

[6] = [3H]-prazosin radioligand, cloned receptor in LTK cell membranes

COc1cc2nc(N3CCN(C(=O)C4CCCO4)CC3)nc(N)c2cc1OC (stereo not drawn) [Terazosin, terazosin, reference compound]
In Vitro Characterization (pA2) Rat Aorta (α-1 Adrenoceptors): 8.65
In Vitro Characterization (pA2) Rat Spleen (α-1B adrenoreceptor [1]): 8.60
Ki (α-1a adrenoreceptor [2]; [6]): 3.31 nM
Ki (α-1d adrenoreceptor; [6]): 0.689 nM

COc1cccc2c1[C@@H]1CCN(CCCCn3c(=O)[nH]c4c(sc5cccnc54)c3=O)C[C@H]1CO2 (racemic) [Example 88, 3-[4-((±)-trans-10-Methoxy-1,3,4,4a,5,10b-hexahydro-2H-[1]-benzopyrano[3,4-c]pyrido-3-yl)butyl]-pyrido[2',3':4,5]thieno[3,2-d]pyrimidine-2,4(1H,3H)-dione hydrochloride]
In Vitro Characterization (pA2) Dog Prostate (α-1A adrenoreceptor [3]): 8.09

COc1cccc2c1[C@@H]1CN(CCCCn3c(=O)[nH]c4c(sc5nc(Cl)ccc54)c3=O)C[C@@H]1CO2 [Example 32, 3-[4-((3aR,9bR)-cis-9-Methoxy-1,2,3,3a,4,9b-hexahydro-[1]-benzopyrano[3,4-c]pyrrol-2-yl)butyl]-7-chloro-pyrido[3',2':4,5]thieno[3,2-d]pyrimidine-2,4(1H,3H)-dione hydrochloride]
In Vitro Characterization (pA2) Rat Aorta (α-1 Adrenoceptors): 9.31
Ki (α-1d adrenoreceptor; [6]): 0.86 nM

COc1cc2[nH]c(=O)n(CCCCN3C[C@@H]4COc5ccccc5[C@H]4C3)c(=O)c2cc1OC (racemic) [Example 80, 3-[4-((±)-trans-1,2,3,3a,4,9b-hexahydro-[1]-benzopyrano[3,4-c]pyrrol-2-yl)butyl]-6,7-dimethoxy-quinazoline-2,4(1H,3H)-dione hydrochloride]
Ki [4]: 0.442 nM
Ki (α-1a adrenoreceptor [2]): 0.17 nM
Ki (α-1d adrenoreceptor): 0.765 nM
Ki (α-1b adrenoreceptor [5]): 2.5 nM

COc1cccc2c1[C@@H]1CN(CCCCn3c(=O)[nH]c4c(sc5ncc(-c6ccoc6)nc54)c3=O)C[C@@H]1CO2 [Example 62, 3-[4-((3aR,9bR)-cis-9-Methoxy-1,2,3,3a,4,9b-hexahydro-[1]-benzopyrano[3,4-c]pyrrol-2-yl)butyl]-8-(3-furyl)-pyrazino[2',3':4,5]thieno[3,2-d]pyrimidine-2,4(1H,3H)-dione dihydrochloride]
Ki ([4]; [3H]-prazosin radioligand, rat submaxillary gland membranes): 983 nM
Ki (α-1a adrenoreceptor [2]; [6]): 52 nM
Ki (α-1d adrenoreceptor; [6]): 411 nM
Ki (α-1b adrenoreceptor [5]; [6]): 1150 nM

From patent EP0942911B1, “BENZOPYRANOPYRROLE AND BENZOPYRANOPYRIDINE ALPHA-1 ADRENERGIC COMPOUNDS” (Abbott Laboratories, priority 1996, dated 1998)
